Source: patent US10640495B2, “Heterocycle derivatives having TrkA inhibitory activity” (Shionogi & Co., Ltd., priority 2015, dated 2020)
Like-named read-outs stand apart in the source and are kept apart here.

Molecular target: human TrkA (Homo sapiens (Human), UniProt P04629)
Assay: Human TrkA inhibition assay (Test Example 2)
Type: biochemical
Outline: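 Mobility-shift readout of phosphorylated versus unphosphorylated fluorescent peptide gave conversion ratio, normalized to DMSO and no-enzyme wells; IC50 by logistic fit of 10- or 15-point 3-fold dilutions. Conditions: 1 nmol/L enzyme, 15 min compound preincubation, then 500 μmol/L ATP plus 1.5 μmol/L peptide, 120 min, 37 °C.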

[1] = Table 155, human TrkA inhibition, read-out: IC50
[2] = Table 157, human TrkA inhibition, read-out: IC50
[3] = Table 154, human TrkA inhibition, read-out: IC50
[4] = Table 156, human TrkA inhibition, read-out: IC50
[5] = human TrkA 1 nmol/L, ATP 500 μmol/L, 120 min at 37° C., read-out: IC50 values (TrkA phosphorylation inhibition)
[6] = Table 153, human TrkA inhibition, read-out: IC50
[7] = Table 152, human TrkA inhibition, read-out: IC50_nM

Sequence of human TrkA (P04629 440-796): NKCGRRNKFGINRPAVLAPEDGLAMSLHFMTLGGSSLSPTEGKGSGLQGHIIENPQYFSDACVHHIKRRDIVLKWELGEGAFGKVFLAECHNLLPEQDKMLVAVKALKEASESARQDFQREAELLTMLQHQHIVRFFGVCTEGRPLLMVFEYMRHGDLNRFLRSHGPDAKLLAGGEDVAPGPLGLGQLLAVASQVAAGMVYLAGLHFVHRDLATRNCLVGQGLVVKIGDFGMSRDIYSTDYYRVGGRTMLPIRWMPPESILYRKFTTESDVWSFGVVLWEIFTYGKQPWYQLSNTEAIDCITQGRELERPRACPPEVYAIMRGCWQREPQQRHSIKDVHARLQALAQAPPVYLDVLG

`COCCN1C[C@@H](NC(=O)Nc2c(C)c(-c3cnc4c(c3)c(C(=O)NC3CCN(C)CC3)nn4C)nn2-c2ccccc2)[C@H](c2ccnc(F)c2)O1` (racemic) [Compound I-376] gave an IC50 [1] of less than 0.1 µM.

`COCCN1C[C@@H](NC(=O)Nc2c(C)c(-c3cnc(N4CC5(CCOCC5)C4)nc3)nn2-c2ccccc2)[C@H](c2ccnc(F)c2)O1` (racemic) [Compound I-408] was tested, and the IC50 [1] was less than 0.1 µM.

With `CCN1C[C@@H](NC(=O)Nc2c(C)c(OCC(=O)N(C)C)nn2-c2ccccc2)[C@H](c2ccc(F)c(F)c2)O1` (racemic) [Compound I-647] the IC50 [2] was less than 0.1 µM.

In the case of `COCCC1C[C@@H](NC(=O)Nc2c(C)c(OCC(C)(C)O)nn2-c2ccccc2)[C@H](c2ccccc2)O1` (stereo partly shown) [Compound I-295], the IC50 [3] is reported as 0.1 to 1 µM.

Compound `COCCN1C[C@@H](NC(=O)Nc2c(C)c(-c3cnn(C)c3)nn2CCN(C)C)[C@H](c2ccc(F)c(F)c2)O1` [Compound I-494] has an IC50 [1] greater than 1 µM.

With `COCCN1C[C@@H](NC(=O)Nc2c(C)c(-c3cnc(C(N)=O)c(F)c3)nn2-c2ccccc2)[C@H](c2ccnc(F)c2)O1` (racemic) [Compound I-255] the IC50 [3] was less than 0.1 µM.

In the case of `COCCN1C[C@@H](NC(=O)Nc2c(C)c(C(F)(F)F)nn2-c2ccccc2)[C@H](c2ccnc(F)c2)O1` (racemic) [Compound I-534], the IC50 [4] is reported as less than 0.1 µM.

For `CNC(=O)c1cc(-c2nn(-c3ccccc3)c(NC(=O)N[C@@H]3CN(CC(F)F)O[C@H]3c3ccc(F)c(F)c3)c2C)cnc1OC` (racemic) [Compound I-551], the IC50 [4] was less than 0.1 µM.

In the case of `CCN1C[C@@H](NC(=O)Nc2c(C)c(OC3CN(C)C3)nn2-c2ccccc2)[C@H](c2ccc(F)c(F)c2)O1` (racemic) [Compound I-632], the IC50 [2] is reported as 0.1 to 1 µM.

For `Cc1c(-c2cnc3c(cnn3C)c2)nn(-c2ccccc2)c1NC(=O)N[C@@H]1CN(Cc2ccn[nH]2)O[C@H]1c1ccc(F)c(F)c1` (racemic) [Compound I-203], the IC50 [3] was 0.1 to 1 µM.

`CCN1C[C@@H](NC(=O)Nc2c(C)c(OCC(=O)NCCO)nn2-c2ccccc2)[C@H](c2ccc(F)c(F)c2)O1` (racemic) [Compound I-651] showed an IC50 [2] of less than 0.1 µM.

For `COCCN1C[C@@H](NC(=O)Nc2c(C)c(-c3cnc4c(c3)OCO4)nn2-c2ccccc2)[C@H](c2ccnc(F)c2)O1` (racemic) [Compound I-606], the IC50 [2] was less than 0.1 µM.

With `Cc1c(-c2cnc3c(cnn3C)c2)nn(-c2ccccc2)c1NC(=O)N[C@@H]1CN(CCC(F)(F)F)O[C@H]1c1ccc(F)c(F)c1` (racemic) [Compound I-622] the IC50 [2] was greater than 1 µM.

`COCCN1C[C@@H](NC(=O)Nc2c(C)c(-c3cnc4oc(C)nc4c3)nn2-c2ccccc2)[C@H](c2ccnc(F)c2)O1` (racemic) [Compound I-596] was tested, and the IC50 [2] was less than 0.1 µM.

`CNC(=O)c1ncc(-c2nn(-c3ccccc3)c(NC(=O)N[C@@H]3CN(CCOC)O[C@H]3c3cnc(F)c(F)c3)c2C)cc1F` (racemic) [Compound I-313] showed an IC50 [5] of 0.0036 µM.

Work on `COCCN1C[C@@H](NC(=O)Nc2c(C)c(OCCCN(C)C)nn2-c2ccccc2)[C@H](c2ccc(F)c(F)c2)O1` [Compound I-552] yielded an IC50 [5] of 0.0017 µM.

In the case of `CNC(=O)c1cc(-c2nn(-c3ccccc3)c(NC(=O)N[C@@H]3CN(CCC(F)(F)F)O[C@H]3c3ccc(F)c(F)c3)c2C)cnc1OC` (racemic) [Compound I-623], the IC50 [2] is reported as 0.1 to 1 µM.

Compound `COCCN1C[C@H](NC(=O)Nc2c(C)c(-c3cnc(OC)nc3)nn2-c2ccccc2)[C@@H](c2cnc(F)c(F)c2)O1` [Compound I-263] has an IC50 [3] of 0.1 to 1 µM.

With `COCCN1C[C@@H](NC(=O)Nc2c(C)c(-c3ccc(N4CCC(O)CC4)nc3)nn2-c2ccccc2)[C@H](c2ccnc(F)c2)O1` (racemic) [Compound I-278] the IC50 [5] was 0.0037 µM.

`COCCN1C[C@@H](NC(=O)Nc2c(C)c(-c3cnc(OC)c(C(=O)N[C@@H]4CCOC4)c3)nn2-c2ccccc2)[C@H](c2ccnc(F)c2)O1` [Compound I-113] was tested, and the IC50 [6] was less than 0.1 µM.

With `COCCN1C[C@@H](NC(=O)Nc2c(C)c(-c3cnc4c(c3)ncn4CC(=O)N(C)C)nn2-c2ccccc2)[C@H](c2ccnc(F)c2)O1` (racemic) [Compound I-402] the IC50 [1] was less than 0.1 µM.

`COCC[C@@H]1C[C@@H](NC(=O)Nc2c(C)c(-c3cnn(C)c3)nn2-c2ccccc2)[C@H](c2ccc(F)c(F)c2)O1` (racemic) [Compound I-23] showed an IC50 [7] of less than 0.1 µM.

In the case of `COCC[C@@H]1C[C@@H](NC(=O)Nc2c(C)c(-c3cnc4c(c3)ncn4C)nn2-c2ccccc2)[C@H](c2ccnc(F)c2)O1` [Compound I-276], the IC50 [3] is reported as less than 0.1 µM.

`Cc1c(-c2cnn(C)c2)nn(-c2ccccc2)c1NC(=O)N[C@@H]1OC(C)(C)O[C@H]1c1ccccc1` (racemic) [Compound I-1] showed an IC50 [5] of 5.2 µM.

For `COCCN1C[C@@H](NC(=O)Nc2c(C)c(-c3cnc(OC(CF)CF)nc3)nn2-c2ccccc2)[C@H](c2ccnc(F)c2)O1` (racemic) [Compound I-478], the IC50 [1] was less than 0.1 µM.

With `COCCC1C[C@@H](NC(=O)Nc2c(C)c(-c3ccc(OCc4ccccc4)nc3)nn2-c2ccccc2)[C@H](c2ccccc2)O1` (stereo partly shown) [Compound I-14] the IC50 [7] was less than 0.1 µM.

In the case of `COCCN1C[C@@H](NC(=O)Nc2c(C)c(-c3cnc4c(c3)nc(CO)n4C)nn2-c2ccccc2)[C@H](c2ccc(F)c(F)c2)O1` (racemic) [Compound I-78], the IC50 [6] is reported as less than 0.1 µM.

With `COCCN1C[C@@H](NC(=O)Nc2c(C)c(-c3ccc4nc(CO)cn4c3)nn2-c2ccccc2)[C@H](c2ccnc(F)c2)O1` (racemic) [Compound I-347] the IC50 [1] was less than 0.1 µM.

`Cc1c(-c2cnc3c(cnn3C)c2)nn(-c2ccccc2)c1NC(=O)N[C@@H]1CN(CC2COC2)O[C@H]1c1ccc(F)c(F)c1` (racemic) [Compound I-202] gave an IC50 [3] of 0.1 to 1 µM.

In the case of `CCN1CCC(COc2nn(-c3ccccc3)c(NC(=O)N[C@@H]3CN(CC)O[C@H]3c3ccc(F)c(F)c3)c2C)CC1` (racemic) [Compound I-609], the IC50 [2] is reported as less than 0.1 µM.

`COCCN1C[C@@H](NC(=O)Nc2c(C)c(OC3CNC3)nn2-c2ccccc2)[C@H](c2ccc(F)c(F)c2)O1` [Compound I-574] was tested, and the IC50 [4] was less than 0.1 µM.

`COCCN1C[C@@H](NC(=O)Nc2c(C)c(-c3cnc4c(c3)c(=O)on4C)nn2-c2ccccc2)[C@H](c2ccnc(F)c2)O1` (racemic) [Compound I-269] gave an IC50 [3] of less than 0.1 µM.

With `CCOc1nn(-c2ccccc2)c(NC(=O)N[C@@H]2CN(CC)O[C@H]2c2ccc(F)c(F)c2)c1C` (racemic) [Compound I-542] the IC50 [4] was less than 0.1 µM.

For `COCCN1C[C@@H](NC(=O)Nc2c(C)c(-c3cnc4c(c3)nnn4C)nn2-c2ccccc2)[C@H](c2ccnc(F)c2)O1` [Compound I-342], the IC50 [1] was less than 0.1 µM.

`COCCN1C[C@@H](NC(=O)Nc2c(C)c(-c3cnc(OC)c(OC)c3)nn2-c2ccccc2)[C@H](c2cnc(F)c(F)c2)O1` (racemic) [Compound I-429] gave an IC50 [1] of less than 0.1 µM.

Work on `COCCN1C[C@@H](NC(=O)Nc2c(C)c(C3=CCN(C(=O)CO)CC3)nn2-c2ccccc2)[C@H](c2ccc(F)c(F)c2)O1` (racemic) [Compound I-53] yielded an IC50 [6] of less than 0.1 µM.

With `COCCN1C[C@@H](NC(=O)Nc2c(C)c(-c3cnc(C)nc3)nn2-c2ccccc2)[C@H](c2cc(F)nc(F)c2)O1` (racemic) [Compound I-285] the IC50 [5] was 0.0027 µM.

In the case of `COCCN1C[C@@H](NC(=O)Nc2c(C)c(-c3ccc(C)nc3)nn2-c2ccccc2)[C@H](c2ccc(F)c(F)c2)O1` [Compound I-556], the IC50 [4] is reported as less than 0.1 µM.

With `COCCN1C[C@@H](NC(=O)Nc2c(C)c(-c3ccc(=O)[nH]c3)nn2-c2ccccc2)[C@H](c2ccc(F)c(F)c2)O1` (racemic) [Compound I-32] the IC50 [7] was less than 0.1 µM.

Compound `COCCN1C[C@@H](NC(=O)Nc2c(C)c(-c3cnc4c(c3)ncn4C)nn2-c2ccccc2)[C@H](c2ccc(F)c(F)c2)O1` (racemic) [Compound I-72] has an IC50 [6] of less than 0.1 µM.

In the case of `COCCN1C[C@@H](NC(=O)Nc2c(C)c(-c3cnc(F)nc3)nn2-c2ccccc2)[C@H](c2ccnc(F)c2)O1` (racemic) [Compound I-300], the IC50 [3] is reported as less than 0.1 µM.

With `CCN1C[C@@H](NC(=O)Nc2c(C)c(-c3cnc(N4CCN(C)CC4)nc3)nn2-c2ccccc2)[C@H](c2ccc(F)c(F)c2)O1` (racemic) [Compound I-540] the IC50 [4] was less than 0.1 µM.

Work on `COCCN1C[C@@H](NC(=O)Nc2c(C)c(-c3cnc(N4CC(N(C)C)C4)nc3)nn2-c2ccccc2)[C@H](c2ccnc(F)c2)O1` (racemic) [Compound I-582] yielded an IC50 [2] of less than 0.1 µM.

`COCCN1C[C@@H](NC(=O)Nc2c(C)c(OCC3CN(C)CCO3)nn2-c2ccccc2)[C@H](c2ccc(F)c(F)c2)O1` (single isomer, unassigned) [Compound I-579] showed an IC50 [4] of less than 0.1 µM.

`COCCN1C[C@@H](NC(=O)Nc2c(C)c(-c3ccnc(C(=O)OC)c3)nn2-c2ccccc2)[C@H](c2ccnc(F)c2)O1` (racemic) [Compound I-194] gave an IC50 [3] of less than 0.1 µM.

For `COCCN1C[C@@H](NC(=O)Nc2c(C)c(-c3cnc(OC)c(C(=O)NOCCF)c3)nn2-c2ccccc2)[C@H](c2ccnc(F)c2)O1` (racemic) [Compound I-261], the IC50 [3] was less than 0.1 µM.

With `COCCN1C[C@@H](NC(=O)Nc2c(C)c(-c3cnc4c(c3)N3C(=O)OCC3CO4)nn2-c2ccccc2)[C@H](c2ccnc(F)c2)O1` (mixture of isomers) [Compound I-326] the IC50 [1] was less than 0.1 µM.

`COCC[C@@H]1C[C@@H](NC(=O)Nc2c(C)c(-c3cc(C(=O)NC4CCOCC4)c(=O)n(C)c3)nn2-c2ccccc2)[C@H](c2ccnc(F)c2)O1` [Compound I-272] was tested, and the IC50 [3] was less than 0.1 µM.

With `COCCN1C[C@@H](NC(=O)Nc2c(C)c(-c3ccnc(CCN(C)C)c3)nn2-c2ccccc2)[C@H](c2ccc(F)c(F)c2)O1` [Compound I-643] the IC50 [2] was less than 0.1 µM.

With `COCCN1C[C@@H](NC(=O)Nc2c(C)c(-c3cnc4c(c3)nc(N3CCCC3)n4C)nn2-c2ccccc2)[C@H](c2ccnc(F)c2)O1` (racemic) [Compound I-398] the IC50 [1] was less than 0.1 µM.

In the case of `CNC(=O)c1cc(-c2nn(-c3ccccc3)c(NC(=O)N[C@@H]3CN(CC(F)(F)F)O[C@H]3c3ccc(F)c(F)c3)c2C)cnc1OC` (racemic) [Compound I-571], the IC50 [4] is reported as less than 0.1 µM.

In the case of `COCCN1C[C@@H](NC(=O)Nc2c(C)c(-c3cnc(C)s3)nn2-c2ccccc2)[C@H](c2ccnc(F)c2)O1` (racemic) [Compound I-287], the IC50 [3] is reported as less than 0.1 µM.
